Experimental findings from ChEMBL document CHEMBL1909046, “DrugMatrix in vitro pharmacology data” are described below.

SMILES strings stand for the structures.

A word on the IC50: it is the midpoint of a concentration-inhibition curve. As a reminder, the Ki is the equilibrium dissociation constant of an inhibitor or competing ligand from its target.

One series has as its target T1, Androgen receptor (Rattus norvegicus, UniProt P15207). Also: in other assays of this panel Not Active means under 50% inhibition at 10 µM.
T1 sequence (P15207 whole entry): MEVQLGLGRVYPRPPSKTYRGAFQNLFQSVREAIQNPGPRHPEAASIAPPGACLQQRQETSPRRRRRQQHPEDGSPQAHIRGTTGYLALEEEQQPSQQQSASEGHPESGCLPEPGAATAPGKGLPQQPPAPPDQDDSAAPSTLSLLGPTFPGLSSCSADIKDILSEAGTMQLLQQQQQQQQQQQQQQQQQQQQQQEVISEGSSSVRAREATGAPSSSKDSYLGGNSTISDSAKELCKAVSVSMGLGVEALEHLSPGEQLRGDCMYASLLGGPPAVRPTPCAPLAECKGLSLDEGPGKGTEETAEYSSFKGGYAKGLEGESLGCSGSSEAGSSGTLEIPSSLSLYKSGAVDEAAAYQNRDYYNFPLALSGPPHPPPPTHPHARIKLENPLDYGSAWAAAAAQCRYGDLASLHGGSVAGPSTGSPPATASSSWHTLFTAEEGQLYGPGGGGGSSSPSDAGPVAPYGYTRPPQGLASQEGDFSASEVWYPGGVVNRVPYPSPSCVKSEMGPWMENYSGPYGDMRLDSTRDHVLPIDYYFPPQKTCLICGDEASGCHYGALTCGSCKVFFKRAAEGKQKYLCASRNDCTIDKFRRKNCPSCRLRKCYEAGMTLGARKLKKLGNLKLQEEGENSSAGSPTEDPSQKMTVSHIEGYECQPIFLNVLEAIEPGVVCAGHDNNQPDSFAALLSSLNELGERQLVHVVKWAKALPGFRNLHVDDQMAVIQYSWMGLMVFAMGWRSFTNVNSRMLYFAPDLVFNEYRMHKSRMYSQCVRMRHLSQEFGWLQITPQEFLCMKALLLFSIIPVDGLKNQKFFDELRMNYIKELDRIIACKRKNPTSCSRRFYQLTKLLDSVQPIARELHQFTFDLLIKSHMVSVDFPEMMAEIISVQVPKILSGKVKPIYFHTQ

Another series has as its target Melanocortin receptor 4 (Homo sapiens, UniProt P32245). The series is classed as cell membranes, Membrane. The following applies: hek293. Also: in other assays of this panel Not Active means under 50% inhibition at 10 µM.
The next series deals with Vasopressin V1a receptor (Homo sapiens, UniProt P37288). In kind it is cell membranes, Membrane. The following applies: hek293.
Another series addresses T2, Calcitonin receptor (Homo sapiens, UniProt P30988).
T2 sequence (P30988 whole entry): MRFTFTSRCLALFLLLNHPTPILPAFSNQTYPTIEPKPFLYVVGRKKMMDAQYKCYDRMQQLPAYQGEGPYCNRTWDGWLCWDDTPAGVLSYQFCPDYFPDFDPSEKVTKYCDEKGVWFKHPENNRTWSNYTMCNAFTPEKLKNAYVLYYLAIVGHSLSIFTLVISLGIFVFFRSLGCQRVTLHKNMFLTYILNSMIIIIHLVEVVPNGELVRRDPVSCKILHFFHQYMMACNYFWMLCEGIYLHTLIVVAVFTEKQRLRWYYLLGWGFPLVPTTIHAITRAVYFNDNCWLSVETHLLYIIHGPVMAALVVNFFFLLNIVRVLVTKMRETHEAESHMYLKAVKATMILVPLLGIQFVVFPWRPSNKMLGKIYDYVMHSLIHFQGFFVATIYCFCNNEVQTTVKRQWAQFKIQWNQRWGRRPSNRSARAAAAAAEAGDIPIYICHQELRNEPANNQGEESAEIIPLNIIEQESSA
In kind it is cell membranes, Membrane. The following applies: t47d.

Series [1] concerns the target cGMP-specific 3',5'-cyclic phosphodiesterase (Homo sapiens, UniProt O76074). Nature of the series: DRUGMATRIX: Phosphodiesterase PDE5 enzyme inhibition (substrate: [3H]cGMP + cGMP). In kind it is tissue-based, Platelet. The following applies: platelet; Not Active = under 50% inhibition at 10 µM.
Series [2] has as its target Tyrosine-protein kinase Lck (Homo sapiens, UniProt P06239). Nature of the series: DRUGMATRIX: Protein Tyrosine Kinase, LCK enzyme inhibition (substrate: Poly(Glu:Tyr)). The series is classed as cell-based, Insect cells. The conditions noted are these: insect cells; Not Active = under 50% inhibition at 10 µM.
Series [3] is described as follows: DRUGMATRIX: Serotonin (5-Hydroxytryptamine) 5-HT3 radioligand binding (ligand: [3H] GR-65630). In kind it is cell membranes, Membrane. The conditions noted are these: hek293; Not Active = under 50% inhibition at 10 µM.
In series [4] the target is T3, 5-hydroxytryptamine receptor 1A (Rattus norvegicus, UniProt P19327). Also: in other assays of this panel Not Active means under 50% inhibition at 10 µM.
T3 sequence (P19327 whole entry): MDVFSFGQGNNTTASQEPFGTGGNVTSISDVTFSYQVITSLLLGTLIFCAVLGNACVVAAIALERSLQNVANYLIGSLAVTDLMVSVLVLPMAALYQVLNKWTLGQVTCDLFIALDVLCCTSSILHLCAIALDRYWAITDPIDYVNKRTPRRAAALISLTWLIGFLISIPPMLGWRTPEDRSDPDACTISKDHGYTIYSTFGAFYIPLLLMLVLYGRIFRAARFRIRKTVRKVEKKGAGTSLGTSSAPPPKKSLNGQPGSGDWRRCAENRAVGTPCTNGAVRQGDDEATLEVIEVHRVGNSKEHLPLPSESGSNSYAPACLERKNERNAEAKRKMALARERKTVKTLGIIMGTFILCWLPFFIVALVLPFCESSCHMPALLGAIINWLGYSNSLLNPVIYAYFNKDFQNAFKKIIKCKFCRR
In kind it is cell membranes, CHO-K1, Membrane.

A further series deals with Cytochrome P450 2D6 (Homo sapiens, UniProt P10635). The conditions noted are these: bti-tn-5b1-4.
Sequence of Cytochrome P450 2D6 (P10635 whole entry): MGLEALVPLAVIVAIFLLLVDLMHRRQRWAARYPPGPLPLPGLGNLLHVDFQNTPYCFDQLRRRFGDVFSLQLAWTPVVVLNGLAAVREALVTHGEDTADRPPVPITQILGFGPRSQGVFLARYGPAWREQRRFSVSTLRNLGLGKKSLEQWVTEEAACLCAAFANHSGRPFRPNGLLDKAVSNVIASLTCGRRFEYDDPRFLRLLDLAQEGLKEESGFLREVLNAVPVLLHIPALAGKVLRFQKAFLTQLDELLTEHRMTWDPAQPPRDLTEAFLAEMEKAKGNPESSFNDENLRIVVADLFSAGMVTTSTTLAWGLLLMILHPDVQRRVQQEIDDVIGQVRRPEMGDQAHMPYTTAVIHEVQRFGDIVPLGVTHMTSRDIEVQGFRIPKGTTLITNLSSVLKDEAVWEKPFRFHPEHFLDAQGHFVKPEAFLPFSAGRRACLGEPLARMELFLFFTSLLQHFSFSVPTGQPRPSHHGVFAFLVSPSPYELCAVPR

Sequence of Melanocortin receptor 4 (P32245 whole entry): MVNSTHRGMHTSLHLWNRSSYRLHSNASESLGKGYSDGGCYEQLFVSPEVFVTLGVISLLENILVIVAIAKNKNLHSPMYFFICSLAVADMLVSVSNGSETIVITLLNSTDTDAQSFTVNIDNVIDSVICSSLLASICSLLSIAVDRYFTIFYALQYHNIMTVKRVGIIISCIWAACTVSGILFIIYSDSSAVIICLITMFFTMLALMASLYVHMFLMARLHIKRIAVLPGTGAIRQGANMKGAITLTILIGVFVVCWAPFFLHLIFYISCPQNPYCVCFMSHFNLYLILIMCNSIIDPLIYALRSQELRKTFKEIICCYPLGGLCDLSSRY
Sequence of Tyrosine-protein kinase Lck (P06239 whole entry): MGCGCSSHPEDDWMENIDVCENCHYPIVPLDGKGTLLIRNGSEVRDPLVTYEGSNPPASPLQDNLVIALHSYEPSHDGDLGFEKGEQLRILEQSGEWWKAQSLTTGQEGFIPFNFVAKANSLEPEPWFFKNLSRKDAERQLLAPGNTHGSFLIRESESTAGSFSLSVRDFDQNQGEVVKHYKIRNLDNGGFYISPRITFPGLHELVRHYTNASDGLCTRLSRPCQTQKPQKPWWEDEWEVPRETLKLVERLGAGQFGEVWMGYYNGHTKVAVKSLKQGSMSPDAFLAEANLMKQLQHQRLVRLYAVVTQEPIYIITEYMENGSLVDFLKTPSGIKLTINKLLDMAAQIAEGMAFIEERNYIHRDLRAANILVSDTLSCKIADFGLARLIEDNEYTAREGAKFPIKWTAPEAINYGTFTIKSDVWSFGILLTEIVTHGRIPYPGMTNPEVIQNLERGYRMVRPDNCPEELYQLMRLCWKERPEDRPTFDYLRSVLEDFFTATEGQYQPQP
Sequence of Vasopressin V1a receptor (P37288 whole entry): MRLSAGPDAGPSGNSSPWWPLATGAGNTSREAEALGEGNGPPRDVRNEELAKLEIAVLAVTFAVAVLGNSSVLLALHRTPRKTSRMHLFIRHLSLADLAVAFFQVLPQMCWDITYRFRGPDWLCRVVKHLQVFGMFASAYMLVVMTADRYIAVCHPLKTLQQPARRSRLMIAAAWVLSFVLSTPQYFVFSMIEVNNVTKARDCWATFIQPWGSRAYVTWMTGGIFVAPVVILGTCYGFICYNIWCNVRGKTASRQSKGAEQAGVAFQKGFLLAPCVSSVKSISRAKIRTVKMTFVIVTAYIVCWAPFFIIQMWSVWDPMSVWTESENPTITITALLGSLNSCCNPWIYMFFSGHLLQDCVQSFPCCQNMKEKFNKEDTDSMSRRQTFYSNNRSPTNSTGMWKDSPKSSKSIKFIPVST

Consider `CC(C)NC[C@H](O)COc1cccc2[nH]ccc12`, for which the IC50 entry (against Androgen receptor; at Melanocortin receptor 4; at Vasopressin V1a receptor; at Calcitonin receptor; in series [1]; in series [2]) was “Not Active” each time. The IC50 entry was “Not Active” in series [3] and 28 nM in series [4] (read-out: IC50). The values for the Ki entry in series [3] and in series [4] (read-out: Ki) were “Not Active” and 16 nM, respectively.

Turning to `NS(=O)(=O)c1cc2c(cc1Cl)NCNS2(=O)=O` [HYDROCHLOROTHIAZIDE], the IC50 result (against Melanocortin receptor 4; on Vasopressin V1a receptor; on Calcitonin receptor; against Cytochrome P450 2D6; in series [1]; in [2]) was “Not Active” throughout. Moreover, the IC50 result in [3] and in series [4] (cho-k1) was “Not Active” each time. The Ki result (on Cytochrome P450 2D6; in [3]) was “Not Active” throughout.

For `CN1CCC[C@H]1c1cccnc1` [NICOTINE], the IC50 result (at Melanocortin receptor 4; against Vasopressin V1a receptor; at Calcitonin receptor; at Cytochrome P450 2D6; in series [1]; in series [2]) was “Not Active” each time. The IC50 entry in series [3] and in series [4] (cho-k1) was “Not Active” in each case. In addition, the Ki entry (on Cytochrome P450 2D6; in series [3]) was “Not Active” each time.

`O=C1CN=C(c2ccccc2)c2cc([N+](=O)[O-])ccc2N1` [NITRAZEPAM]: the IC50 entry (at Melanocortin receptor 4; against Vasopressin V1a receptor; at Calcitonin receptor; on Cytochrome P450 2D6; in series [1]; in series [2]) was “Not Active” in each case. For the same molecule, the IC50 entry in series [3] and in series [4] (cho-k1) was “Not Active” throughout. The Ki result (on Cytochrome P450 2D6; in series [3]) was “Not Active” each time.

On to `CC1COc2c(N3CCN(C)CC3)c(F)cc3c(=O)c(C(=O)O)cn1c23` (stereo not given) [OFLOXACIN], for which the IC50 entry (against Melanocortin receptor 4; against Vasopressin V1a receptor; at Calcitonin receptor; against Cytochrome P450 2D6; in [1]; in series [2]) was “Not Active” in each case. In addition, the IC50 result in series [3] and in series [4] (cho-k1) was “Not Active” throughout. In addition, the Ki entry (on Cytochrome P450 2D6; in series [3]) was “Not Active” in each case.

For the molecule `Oc1cccc2cccnc12` [OXYQUINOLINE], the IC50 entry (against Melanocortin receptor 4; against Vasopressin V1a receptor; on Calcitonin receptor; on Cytochrome P450 2D6; in series [1]; in series [2]) was “Not Active” each time. Also, the IC50 entry in [3] and in [4] (cho-k1) was “Not Active” each time. For the same molecule, the Ki entry (at Cytochrome P450 2D6; in series [3]) was “Not Active” throughout.

For `CC(C)(S)[C@@H](N)C(=O)O` [PENICILLAMINE], the IC50 entry (against Melanocortin receptor 4; at Vasopressin V1a receptor; at Calcitonin receptor; against Cytochrome P450 2D6; in series [1]; in series [2]) was “Not Active” each time. Moreover, the IC50 result in series [3] and in series [4] (cho-k1) was “Not Active” each time. The Ki result (at Cytochrome P450 2D6; in [3]) was “Not Active” each time.

Turning to `CC(=O)CCCCn1c(=O)c2c(ncn2C)n(C)c1=O` [PENTOXIFYLLINE], the IC50 result (on Melanocortin receptor 4; on Vasopressin V1a receptor; on Calcitonin receptor; on Cytochrome P450 2D6; in [1]; in series [2]) was “Not Active” in each case. In addition, the IC50 entry in series [3] and in series [4] (cho-k1) was “Not Active” each time. For the same molecule, the Ki result (at Cytochrome P450 2D6; in series [3]) was “Not Active” in each case.

Turning to `O=C1NC(=O)C(c2ccccc2)(c2ccccc2)N1` [PHENYTOIN], the IC50 entry (on Melanocortin receptor 4; at Vasopressin V1a receptor; at Calcitonin receptor; against Cytochrome P450 2D6; in series [1]; in series [2]) was “Not Active” throughout. Also, the IC50 entry in [3] and in series [4] (cho-k1) was “Not Active” each time. Further, the Ki result (at Cytochrome P450 2D6; in series [3]) was “Not Active” throughout.

Consider `CN1C(C(=O)Nc2ccccn2)=C(O)c2ccccc2S1(=O)=O` [PIROXICAM], for which the IC50 entry (on Melanocortin receptor 4; on Vasopressin V1a receptor; on Calcitonin receptor; on Cytochrome P450 2D6; in [1]; in [2]) was “Not Active” each time. For the same molecule, the IC50 entry in series [3] and in series [4] (cho-k1) was “Not Active” throughout. Further, the Ki result (at Cytochrome P450 2D6; in series [3]) was “Not Active” each time.

Consider `CCC1(c2ccccc2)C(=O)NCNC1=O` [PRIMIDONE], for which the IC50 result (at Melanocortin receptor 4; on Vasopressin V1a receptor; on Calcitonin receptor; at Cytochrome P450 2D6; in series [1]; in series [2]) was “Not Active” in each case. The IC50 entry in series [3] and in series [4] (cho-k1) was “Not Active” in each case. The Ki result (at Cytochrome P450 2D6; in series [3]) was “Not Active” in each case.

Take `CCCc1cc(=O)[nH]c(=S)[nH]1` [PROPYLTHIOURACIL]: the IC50 result (against Melanocortin receptor 4; against Vasopressin V1a receptor; at Calcitonin receptor; against Cytochrome P450 2D6; in [1]; in series [2]) was “Not Active” in each case. Moreover, the IC50 result in series [3] and in series [4] (cho-k1) was “Not Active” in each case. The Ki result (at Cytochrome P450 2D6; in [3]) was “Not Active” in each case.
